Results as given in patent US8168567B2, “Thiadiazolyl oxyphenyl amidines and the use thereof as a fungicide” (Bayer Cropscience AG, priority 2007, dated 2012).
Like-named read-outs stand apart in the source and are kept apart here.

Assay: logP determination (acidic, pH 2.3)
Assay type: physicochemical
[1] = acidic, read-out: logP (acidic)

| logP (read-out: log P (pH 2.3)) | logP [1] | Compound |
| --- | --- | --- |
| 3.44 |  | CC(C)(C)c1nsc(Cl)n1 [3-(tert-Butyl)-5-chloro-1,2,4-thiadiazole] |
| 3.29 |  | Cc1cc(Oc2nc(C(C)(C)C)ns2)c(C)cc1N [4-[(3-(tert-Butyl)-1,2,4-thiadiazol-5-yl)oxy]-2,5-dimethylaniline] |
| 2.02 |  | CCN(C)/C=N/c1cc(C)c(Oc2nc(C(C)(C)C)ns2)cc1C [A-1, N′-{4-[(3-(tert-butyl)-1,2,4-thiadiazol-5-yl)oxy]-2,5-dimethylphenyl}-N-ethyl-N-methylimidoformamide] |
|  | 2.22 | Cc1cc(Oc2nc(C(C)(C)C)ns2)c(C)cc1/N=C/N1CCCCC1 [A-3, 4-[(3-(tert-butyl)-1,2,4-thiadiazol-5-yl)oxy]-2,5-dimethyl-N-[(1E)-piperidin-1-ylmethylene]aniline] |

Continued, compound first:

| Compound | logP (read-out: log P (pH 2.3)) | logP [1] |
| --- | --- | --- |
| Cc1cc(Oc2nc(C(C)(C)C)ns2)c(C)cc1N=CN(C)C(C)C [A-2, N′-{4-[(3-(tert-butyl)-1,2,4-thiadiazol-5-yl)oxy]-2,5-dimethylphenyl}-N-isopropyl-N-methylimidoformamide] |  | 2.15 |
| CCN(C)C=Nc1cc(Cl)c(Oc2nc(C(C)(C)C)ns2)cc1C [A-8, N′-{4-[(3-(tert-butyl)-1,2,4-thiadiazol-5-yl)oxy]-5-chloro-2-methylphenyl}-N-ethyl-N-methylimidoformamide] |  | 2.11 |
| Cc1cc(Oc2nc(C(C)(C)C)ns2)c(Cl)cc1/N=C/N1CCCCC1 [A-9, 4-[(3-(tert-butyl)-1,2,4-thiadiazol-5-yl)oxy]-5-chloro-2-methyl-N-[(1E)-piperidin-1-ylmethylene]aniline] |  | 2.36 |
